# Calls of active or inactive are those of the source. The rule behind the calls is not given here.
# Columns and labels:
# Platelet [1] = assay: Antiaggregating activity in Homo sapiens (human) platelet rich plasma assessed as inhibition of arachidonic acid-induced platelet aggregation at 1 uM incubated for 4 min prior to arachidonic acid-induction measured for 5.5 min by turbidometric analysis; assay type: functional, cell-free
# [2] = Antiaggregating activity in Homo sapiens (human) platelet rich plasma assessed as ristocetin-induced platelet aggregation at 0.25 uM incubated for 4 min prior to ristocetin-induction measured for 5.5 min by turbidometric analysis (reference value: 65 to 99%); assay type: functional
# [3] = Antiaggregating activity in Homo sapiens (human) platelet rich plasma assessed as arachidonic acid-induced platelet aggregation at 0.125 uM incubated for 4 min prior to arachidonic acid-induction measured for 5.5 min by turbidometric analysis (reference value: 55 to 100%); assay type: functional
# Platelet [4] = assay: Antiaggregating activity in Homo sapiens (human) platelet rich plasma assessed as inhibition of ADP-induced platelet aggregation at 1 uM incubated for 4 min prior to ADP-induction measured for 5.5 min by turbidometric analysis; assay type: functional, cell-free
# Platelet [5] = assay: Antiaggregating activity in Homo sapiens (human) platelet rich plasma assessed as inhibition of arachidonic acid-induced platelet aggregation at 0.25 uM incubated for 4 min prior to arachidonic acid-induction measured for 5.5 min by turbidometric analysis; assay type: functional, cell-free
# Platelet [6] = assay: Antiaggregating activity in Homo sapiens (human) platelet rich plasma assessed as inhibition of arachidonic acid-induced platelet aggregation at 0.5 uM incubated for 4 min prior to arachidonic acid-induction measured for 5.5 min by turbidometric analysis; assay type: functional
# Platelet [7] = assay: Antiaggregating activity in Homo sapiens (human) platelet rich plasma assessed as inhibition of adrenaline-induced platelet aggregation at 0.5 uM incubated for 4 min prior to adrenaline-induction measured for 5.5 min by turbidometric analysis; assay type: functional, cell-free
# [8] = Antiaggregating activity in Homo sapiens (human) platelet rich plasma assessed as disaggregation of ADP-induced platelet aggregation at 0.5 uM incubated for 4 min prior to ADP-induction measured for 5.5 min by turbidometric analysis relative to control; assay type: functional
# [9] = Antiaggregating activity in Homo sapiens (human) platelet rich plasma assessed as ADP-induced platelet aggregation at 0.125 uM incubated for 4 min prior to ADP-induction measured for 5.5 min by turbidometric analysis (reference value: 54 to 88%); assay type: functional
# [10] = Antiaggregating activity in Homo sapiens (human) platelet rich plasma assessed as ristocetin-induced platelet aggregation at 1 uM incubated for 4 min prior to ristocetin-induction measured for 5.5 min by turbidometric analysis (reference value: 65 to 99%); assay type: functional
# Platelet [11] = assay: Antiaggregating activity in Homo sapiens (human) platelet rich plasma assessed as inhibition of adrenaline-induced platelet aggregation at 0.125 uM incubated for 4 min prior to adrenaline-induction measured for 5.5 min by turbidometric analysis; assay type: functional, cell-free
# [12] = Antiaggregating activity in Homo sapiens (human) platelet rich plasma assessed as ristocetin-induced platelet aggregation at 0.5 uM incubated for 4 min prior to ristocetin-induction measured for 5.5 min by turbidometric analysis (reference value: 65 to 99%); assay type: functional
# [13] = Antiaggregating activity in Homo sapiens (human) platelet rich plasma assessed as ADP-induced platelet aggregation at 0.25 uM incubated for 4 min prior to ADP-induction measured for 5.5 min by turbidometric analysis (reference value: 54 to 88%); assay type: functional
# [14] = Antiaggregating activity in Homo sapiens (human) platelet rich plasma assessed as ristocetin-induced platelet aggregation at 0.125 uM incubated for 4 min prior to ristocetin-induction measured for 5.5 min by turbidometric analysis (reference value: 65 to 99%); assay type: functional
# [15] = Antiaggregating activity in Homo sapiens (human) platelet rich plasma assessed as collagen-induced platelet aggregation at 0.25 uM incubated for 4 min prior to collagen-induction measured for 5.5 min by turbidometric analysis (reference value: 50 to 98%); assay type: functional
# Platelet [16] = assay: Antiaggregating activity in Homo sapiens (human) platelet rich plasma assessed as inhibition of collagen-induced platelet aggregation at 0.5 uM incubated for 4 min prior to collagen-induction measured for 5.5 min by turbidometric analysis; assay type: functional, cell-free
# [17] = Antiaggregating activity in Homo sapiens (human) platelet rich plasma assessed as collagen-induced platelet aggregation at 0.125 uM incubated for 4 min prior to collagen-induction measured for 5.5 min by turbidometric analysis (reference value: 50 to 98%); assay type: functional
# Platelet [18] = assay: Antiaggregating activity in Homo sapiens (human) platelet rich plasma assessed as inhibition of collagen-induced platelet aggregation at 1 uM incubated for 4 min prior to collagen-induction measured for 5.5 min by turbidometric analysis; assay type: functional, cell-free
# Platelet [19] = assay: Antiaggregating activity in Homo sapiens (human) platelet rich plasma assessed as inhibition of adrenaline-induced platelet aggregation at 1 uM incubated for 4 min prior to adrenaline-induction measured for 5.5 min by turbidometric analysis; assay type: functional, cell-free
# Platelet [20] = assay: Antiaggregating activity in Homo sapiens (human) platelet rich plasma assessed as inhibition of adrenaline-induced platelet aggregation at 0.25 uM incubated for 4 min prior to adrenaline-induction measured for 5.5 min by turbidometric analysis; assay type: functional, cell-free
# [21] = Antiaggregating activity in Homo sapiens (human) platelet rich plasma assessed as disaggregation of ADP-induced platelet aggregation at 0.125 uM incubated for 4 min prior to ADP-induction measured for 5.5 min by turbidometric analysis relative to control; assay type: functional
# Platelet [22] = assay: Antiaggregating activity in Homo sapiens (human) platelet rich plasma assessed as inhibition of ADP-induced platelet aggregation at 0.5 uM incubated for 4 min prior to ADP-induction measured for 5.5 min by turbidometric analysis; assay type: functional, cell-free
# Platelet [23] = assay: Antiaggregating activity in Homo sapiens (human) platelet rich plasma assessed as inhibition of arachidonic acid-induced platelet aggregation at 0.125 uM incubated for 4 min prior to arachidonic acid-induction measured for 5.5 min by turbidometric analysis; assay type: functional, cell-free
# [24] = Antiaggregating activity in Homo sapiens (human) platelet rich plasma assessed as disaggregation of ristocetin-induced platelet aggregation at 0.25 uM incubated for 4 min prior to ristocetin-induction measured for 5.5 min by turbidometric analysis relative to control; assay type: functional
# Platelet [25] = assay: Antiaggregating activity in Homo sapiens (human) platelet rich plasma assessed as inhibition of ADP-induced platelet aggregation at 0.25 uM incubated for 4 min prior to ADP-induction measured for 5.5 min by turbidometric analysis; assay type: functional, cell-free
# Platelet [26] = assay: Antiaggregating activity in Homo sapiens (human) platelet rich plasma assessed as inhibition of collagen-induced platelet aggregation at 0.25 uM incubated for 4 min prior to collagen-induction measured for 5.5 min by turbidometric analysis; assay type: functional
# Platelet [27] = assay: Antiaggregating activity in Homo sapiens (human) platelet rich plasma assessed as inhibition of collagen-induced platelet aggregation at 10 uM incubated for 4 min prior to collagen-induction measured for 5.5 min by turbidometric analysis; assay type: functional, cell-free
# Platelet [28] = assay: Antiaggregating activity in Homo sapiens (human) platelet rich plasma assessed as inhibition of adrenaline-induced platelet aggregation at 10 uM incubated for 4 min prior to adrenaline-induction measured for 5.5 min by turbidometric analysis; assay type: functional, cell-free
# [29] = Antiaggregating activity in Homo sapiens (human) platelet rich plasma assessed as ADP-induced platelet aggregation at 5 uM incubated for 4 min prior to ADP-induction measured for 5.5 min by turbidometric analysis (reference value: 54 to 88%); assay type: functional
# [30] = Antiaggregating activity in Homo sapiens (human) platelet rich plasma assessed as ristocetin-induced platelet aggregation at 5 uM incubated for 4 min prior to ristocetin-induction measured for 5.5 min by turbidometric analysis (reference value: 65 to 99%); assay type: functional
# Platelet [31] = assay: Antiaggregating activity in Homo sapiens (human) platelet rich plasma assessed as inhibition of arachidonic acid-induced platelet aggregation at 20 uM incubated for 4 min prior to arachidonic acid-induction measured for 5.5 min by turbidometric analysis; assay type: functional, cell-free
# Platelet [32] = assay: Antiaggregating activity in Homo sapiens (human) platelet rich plasma assessed as inhibition of ADP-induced platelet aggregation at 10 uM incubated for 4 min prior to ADP-induction measured for 5.5 min by turbidometric analysis; assay type: functional, cell-free
# Platelet [33] = assay: Antiaggregating activity in Homo sapiens (human) platelet rich plasma assessed as inhibition of adrenaline-induced platelet aggregation at 20 uM incubated for 4 min prior to adrenaline-induction measured for 5.5 min by turbidometric analysis; assay type: functional, cell-free
# Platelet [34] = assay: Antiaggregating activity in Homo sapiens (human) platelet rich plasma assessed as inhibition of adrenaline-induced platelet aggregation at 5 uM incubated for 4 min prior to adrenaline-induction measured for 5.5 min by turbidometric analysis; assay type: functional, cell-free
# Platelet [35] = assay: Antiaggregating activity in Homo sapiens (human) platelet rich plasma assessed as inhibition of ristocetin-induced platelet aggregation at 20 uM incubated for 4 min prior to ristocetin-induction measured for 5.5 min by turbidometric analysis; assay type: functional, cell-free
# Platelet [36] = assay: Antiaggregating activity in Homo sapiens (human) platelet rich plasma assessed as inhibition of arachidonic acid-induced platelet aggregation at 10 uM incubated for 4 min prior to arachidonic acid-induction measured for 5.5 min by turbidometric analysis; assay type: functional, cell-free
# [37] = Antiaggregating activity in Homo sapiens (human) platelet rich plasma assessed as ADP-induced platelet aggregation at 1 uM incubated for 4 min prior to ADP-induction measured for 5.5 min by turbidometric analysis (reference value: 54 to 88%); assay type: functional
# [38] = Antiaggregating activity in Homo sapiens (human) platelet rich plasma assessed as arachidonic acid-induced platelet aggregation at 1 uM incubated for 4 min prior to arachidonic acid-induction measured for 5.5 min by turbidometric analysis (reference value: 55 to 100%); assay type: functional
# Platelet [39] = assay: Antiaggregating activity in Homo sapiens (human) platelet rich plasma assessed as inhibition of collagen-induced platelet aggregation at 5 uM incubated for 4 min prior to collagen-induction measured for 5.5 min by turbidometric analysis; assay type: functional, cell-free
# Platelet [40] = assay: Antiaggregating activity in Homo sapiens (human) platelet rich plasma assessed as inhibition of collagen-induced platelet aggregation at 20 uM incubated for 4 min prior to collagen-induction measured for 5.5 min by turbidometric analysis; assay type: functional, cell-free
# [41] = Antiaggregating activity in Homo sapiens (human) platelet rich plasma assessed as ristocetin-induced platelet aggregation at 10 uM incubated for 4 min prior to ristocetin-induction measured for 5.5 min by turbidometric analysis (reference value: 65 to 99%); assay type: functional
# [42] = Antiaggregating activity in Homo sapiens (human) platelet rich plasma assessed as collagen-induced platelet aggregation at 1 uM incubated for 4 min prior to collagen-induction measured for 5.5 min by turbidometric analysis (reference value: 50 to 98%); assay type: functional
# Platelet [43] = assay: Antiaggregating activity in Homo sapiens (human) platelet rich plasma assessed as ADP-induced platelet aggregation at 20 uM incubated for 4 min prior to ADP-induction measured for 5.5 min by turbidometric analysis (reference value: 54 to 88%); assay type: functional
# Platelet [44] = assay: Antiaggregating activity in Homo sapiens (human) platelet rich plasma assessed as inhibition of arachidonic acid-induced platelet aggregation at 5 uM incubated for 4 min prior to arachidonic acid-induction measured for 5.5 min by turbidometric analysis; assay type: functional, cell-free
SMILES,inhibition (Platelet [1]),inhibition (Platelet [4]),inhibition (Platelet [5]),inhibition (Platelet [6]),inhibition (Platelet [7]),Activity [10] [%],inhibition (Platelet [11]),Activity [12] [%],Activity [14] [%],inhibition (Platelet [16]),Activity [17] [%],inhibition (Platelet [18]),inhibition (Platelet [19]),inhibition (Platelet [20]),also measured
O=C(c1ccc[n+](Cc2ccc(Br)cc2)c1)N1CCN(c2ccccc2Cl)CC1.[Br-],Active,Active,Active,Active,Active,69,Active,78,84,Active,67,Active,Active,Active,Activity [2]: 84%; Activity [3]: 68%; Activity [8]: 52%; Activity [9]: 84%; Activity [13]: 74%; Activity [15]: 77%
Cl.O=C(C1CCCN(Cc2ccc(F)cc2)C1)N1CCN(c2ccccc2Cl)CC1 (stereo not given),Active,Active,Active,Active,Active,40,Active,67,100,Active,72,Active,Active,Active,Activity [21]: 80%; inhibition (Platelet [22]): Active; inhibition (Platelet [23]): Active; Activity [24]: 68%; inhibition (Platelet [25]): Active; inhibition (Platelet [26]): Active
O=C(c1ccc[n+](Cc2ccc(Br)cc2)c1)N1CCN(c2ncccn2)CC1.[Br-],–,–,–,–,–,60,–,–,–,–,–,–,Active,–,inhibition (Platelet [27]): Active; inhibition (Platelet [28]): Active; Activity [29]: 64%; Activity [30]: 43%; inhibition (Platelet [31]): Active; inhibition (Platelet [32]): Active; inhibition (Platelet [33]): Active; inhibition (Platelet [34]): Active; inhibition (Platelet [35]): Active; inhibition (Platelet [36]): Active; Activity [37]: 60%; Activity [38]: 52%; inhibition (Platelet [39]): Active; inhibition (Platelet [40]): Active; Activity [41]: 27%; Activity [42]: 64%; inhibition (Platelet [43]): Active; inhibition (Platelet [44]): Active
